According to patent publication US8653041B2, “Antibacterial aminoglycoside analogs” (Achaogen, Inc., priority 2010, dated 2014):
In brackets after ≈: the same amount, converted by molar mass. Like-named read-outs stand apart in the source and are kept apart here.

Columns and labels:
[1] = test system: Acinetobacter baumannii; experiment: MIC, CLSI broth microdilution, Acinetobacter baumannii panel; format: cell-based; settings: Acinetobacter baumannii, read-out: MIC
Experimental: (§1) Minimum inhibitory concentrations (MIC) were determined by reference Clinical and Laboratory Standards Institute (CLSI) broth microdilution methods per M7-A7 [2006]. Quality control ranges utilizing E. coli ATCC 25922, P. aeruginosa ATCC 27853 and S. aureus ATCC 29213, and interpretive criteria for comparator agents were as published in CLSI M100-S17 [2007]. Briefly, serial two-fold dilutions of the test compounds were prepared at 2× concentration in Mueller Hinton Broth. The compound dilutions were mixed in 96-well assay plates in a 1:1 ratio with bacterial inoculum. The inoculum was prepared by suspension of a colony from an agar plate that was prepared the previous day. Bacteria were suspended in sterile saline and added to each assay plate to obtain a final concentration of 5×10^5 CFU/mL. The plates were incubated at 35 C for 20 hours in ambient air.
The MIC panel presented in Table 2 contains 29 isolates of Acinetobacter baumannii: strains 1-24 are clinical isolates from around the world collected between 2004-2007 which contain representative resistance mechanisms commonly found in Acinetobacter baumannii, such as AAC(3)-I and II, AAC(6′)-I, ANT(2″)-I, APH(3′)-VI, and perm/efflux; strains 25-29 are susceptible.

[2] = 14-day rat toxicology (nephrotoxicity), once-daily subcutaneous injection
Experimental: The study design utilized once-daily subcutaneous injection administration to the rat for 14 days and assessment of reversibility of any changes following a 28-day recovery period.
The dose volume administered to each animal was 1 mL/kg.

[3] = test system: Pseudomonas aeruginosa; experiment: MIC, CLSI broth microdilution, Pseudomonas aeruginosa panel; format: cell-based; settings: Pseudomonas aeruginosa, read-out: MIC
Experimental: as §1
The MIC panel presented in Table 1 contains 27 isolates of Pseudomonas aeruginosa: strains 1-22 are clinical isolates from around the world collected between 2004-2007 which contain representative resistance mechanisms commonly found in Pseudomonas, such as the AAC(6′)-I, AAC(6′)-II, APH(3′)-IIb, ANT(2″)-I, and perm/efflux; strains 23-27 are susceptible.

`NC[C@@H]1O[C@H](O[C@H]2[C@@H](O)[C@H](O[C@@H]3[C@@H](O)[C@H](NC(=O)[C@@H](O)CN)C[C@H](N)[C@H]3O[C@H]3O[C@H](CNCCO)[C@@H](O)C[C@H]3N)O[C@@H]2CO)[C@H](N)[C@@H](O)[C@@H]1O` [Compound 20] gave an MIC ([1]; A. baumannii clinical strain 1 (resistant clinical isolate)) of 1 to 8 µg/mL (≈ 1.37 to 11 µM), an MIC ([1]; A. baumannii clinical strain 2 (resistant clinical isolate)) of 1 to 8 µg/mL (≈ 1.37 to 11 µM) and an MIC ([1]; A. baumannii clinical strain 3 (resistant clinical isolate)) of no more than 1 µg/mL. It also gave an MIC ([1]; A. baumannii clinical strain 4 (resistant clinical isolate)) of 16 to 32 µg/mL (≈ 21.9 to 43.8 µM), an MIC ([1]; A. baumannii clinical strain 5 (resistant clinical isolate)) of no more than 1 µg/mL and an MIC ([1]; A. baumannii clinical strain 6 (resistant clinical isolate)) of 1 to 8 µg/mL (≈ 1.37 to 11 µM). For the same molecule, the MIC ([1]; A. baumannii clinical strain 7 (resistant clinical isolate)) was no more than 1 µg/mL, the MIC ([1]; A. baumannii clinical strain 8 (resistant clinical isolate)) was no more than 1 µg/mL and the MIC ([1]; A. baumannii clinical strain 9 (resistant clinical isolate)) was no more than 1 µg/mL. It also gave an MIC ([1]; A. baumannii clinical strain 10 (resistant clinical isolate)) of 1 to 8 µg/mL (≈ 1.37 to 11 µM), an MIC ([1]; A. baumannii clinical strain 11 (resistant clinical isolate)) of no more than 1 µg/mL and an MIC ([1]; A. baumannii clinical strain 12 (resistant clinical isolate)) of no more than 1 µg/mL. It also gave an MIC ([1]; A. baumannii clinical strain 13 (resistant clinical isolate)) of no more than 1 µg/mL, an MIC ([1]; A. baumannii clinical strain 14 (resistant clinical isolate)) of no more than 1 µg/mL and an MIC ([1]; A. baumannii clinical strain 15 (resistant clinical isolate)) of no more than 1 µg/mL. For the same molecule, the MIC ([1]; A. baumannii clinical strain 16 (resistant clinical isolate)) was 1 to 8 µg/mL (≈ 1.37 to 11 µM), the MIC ([1]; A. baumannii clinical strain 17 (resistant clinical isolate)) was 1 to 8 µg/mL (≈ 1.37 to 11 µM) and the MIC ([1]; A. baumannii clinical strain 18 (resistant clinical isolate)) was 1 to 8 µg/mL (≈ 1.37 to 11 µM). It also gave an MIC ([1]; A. baumannii clinical strain 19 (resistant clinical isolate)) of 1 to 8 µg/mL (≈ 1.37 to 11 µM), an MIC ([1]; A. baumannii clinical strain 20 (resistant clinical isolate)) of 1 to 8 µg/mL (≈ 1.37 to 11 µM) and an MIC ([1]; A. baumannii clinical strain 21 (resistant clinical isolate)) of no more than 1 µg/mL. It also gave an MIC ([1]; A. baumannii clinical strain 22 (resistant clinical isolate)) of 8 to 16 µg/mL (≈ 11 to 21.9 µM), an MIC ([1]; A. baumannii clinical strain 23 (resistant clinical isolate)) of no more than 1 µg/mL and an MIC ([1]; A. baumannii clinical strain 24 (resistant clinical isolate)) of 1 to 8 µg/mL (≈ 1.37 to 11 µM). For the same molecule, the MIC ([1]; A. baumannii strain 25 (susceptible)) was no more than 1 µg/mL, the MIC ([1]; A. baumannii strain 26 (susceptible)) was no more than 1 µg/mL and the MIC ([1]; A. baumannii strain 27 (susceptible)) was no more than 1 µg/mL. For the same molecule, the MIC ([1]; A. baumannii strain 28 (susceptible)) was no more than 1 µg/mL, the MIC ([1]; A. baumannii strain 29 (susceptible)) was no more than 1 µg/mL and the mortality ([2]; 10, 30 or 100 mg/kg/day subcutaneous, once daily, 14 days, Sprague-Dawley rat) was “did not result in mortality at any dose”. The “macroscopic or microscopic changes to the kidneys” value ([2]; rat, in vivo) was “nor any significant macroscopic or microscopic changes to the kidneys”, the MIC ([3]; P. aeruginosa clinical strain 1 (resistant clinical isolate)) was no more than 1 µg/mL and the MIC ([3]; P. aeruginosa clinical strain 2 (resistant clinical isolate)) was no more than 1 µg/mL. For the same molecule, the MIC ([3]; P. aeruginosa clinical strain 3 (resistant clinical isolate)) was 1 to 8 µg/mL (≈ 1.37 to 11 µM), the MIC ([3]; P. aeruginosa clinical strain 4 (resistant clinical isolate)) was 1 to 8 µg/mL (≈ 1.37 to 11 µM) and the MIC ([3]; P. aeruginosa clinical strain 5 (resistant clinical isolate)) was 1 to 8 µg/mL (≈ 1.37 to 11 µM). It also gave an MIC ([3]; P. aeruginosa clinical strain 6 (resistant clinical isolate)) of 1 to 8 µg/mL (≈ 1.37 to 11 µM), an MIC ([3]; P. aeruginosa clinical strain 7 (resistant clinical isolate)) of no more than 1 µg/mL and an MIC ([3]; P. aeruginosa clinical strain 8 (resistant clinical isolate)) of 1 to 8 µg/mL (≈ 1.37 to 11 µM). It also gave an MIC ([3]; P. aeruginosa clinical strain 9 (resistant clinical isolate)) of no more than 1 µg/mL, an MIC ([3]; P. aeruginosa clinical strain 10 (resistant clinical isolate)) of 1 to 8 µg/mL (≈ 1.37 to 11 µM) and an MIC ([3]; P. aeruginosa clinical strain 11 (resistant clinical isolate)) of no more than 1 µg/mL. It also gave an MIC ([3]; P. aeruginosa clinical strain 12 (resistant clinical isolate)) of no more than 1 µg/mL, an MIC ([3]; P. aeruginosa clinical strain 13 (resistant clinical isolate)) of 8 to 16 µg/mL (≈ 11 to 21.9 µM) and an MIC ([3]; P. aeruginosa clinical strain 14 (resistant clinical isolate)) of no more than 1 µg/mL. For the same molecule, the MIC ([3]; P. aeruginosa clinical strain 15 (resistant clinical isolate)) was 1 to 8 µg/mL (≈ 1.37 to 11 µM), the MIC ([3]; P. aeruginosa clinical strain 16 (resistant clinical isolate)) was no more than 1 µg/mL and the MIC ([3]; P. aeruginosa clinical strain 17 (resistant clinical isolate)) was 1 to 8 µg/mL (≈ 1.37 to 11 µM). It also gave an MIC ([3]; P. aeruginosa clinical strain 18 (resistant clinical isolate)) of 1 to 8 µg/mL (≈ 1.37 to 11 µM), an MIC ([3]; P. aeruginosa clinical strain 19 (resistant clinical isolate)) of 16 to 32 µg/mL (≈ 21.9 to 43.8 µM) and an MIC ([3]; P. aeruginosa clinical strain 20 (resistant clinical isolate)) of 16 to 32 µg/mL (≈ 21.9 to 43.8 µM). The MIC ([3]; P. aeruginosa clinical strain 21 (resistant clinical isolate)) was 1 to 8 µg/mL (≈ 1.37 to 11 µM), the MIC ([3]; P. aeruginosa clinical strain 22 (resistant clinical isolate)) was 1 to 8 µg/mL (≈ 1.37 to 11 µM) and the MIC ([3]; P. aeruginosa strain 23 (susceptible)) was no more than 1 µg/mL. The MIC ([3]; P. aeruginosa strain 24 (susceptible)) was no more than 1 µg/mL, the MIC ([3]; P. aeruginosa strain 25 (susceptible)) was no more than 1 µg/mL and the MIC ([3]; P. aeruginosa strain 26 (susceptible)) was no more than 1 µg/mL. It also gave an MIC ([3]; P. aeruginosa strain 27 (susceptible)) of no more than 1 µg/mL.
